{
  "source": "paper PMC10924921",
  "about": "“Mi-2β promotes immune evasion in melanoma by activating EZH2 methylation” (Nature Communications, 2024)",
  "experiment_in_all_cases": "biochemical",
  "set-up_in_all_cases": "KINOMEscan active-site competition binding panel (468 kinase assays), per cent of control at 1000 nM",
  "conditions_in_all_cases": "KINOMEscan per cent of control (binding competition); read-out: Percent Control",
  "key": {"[1]": {"biological_target": "RET (Homo sapiens, UniProt P07949)", "sequence (P07949 whole entry)": "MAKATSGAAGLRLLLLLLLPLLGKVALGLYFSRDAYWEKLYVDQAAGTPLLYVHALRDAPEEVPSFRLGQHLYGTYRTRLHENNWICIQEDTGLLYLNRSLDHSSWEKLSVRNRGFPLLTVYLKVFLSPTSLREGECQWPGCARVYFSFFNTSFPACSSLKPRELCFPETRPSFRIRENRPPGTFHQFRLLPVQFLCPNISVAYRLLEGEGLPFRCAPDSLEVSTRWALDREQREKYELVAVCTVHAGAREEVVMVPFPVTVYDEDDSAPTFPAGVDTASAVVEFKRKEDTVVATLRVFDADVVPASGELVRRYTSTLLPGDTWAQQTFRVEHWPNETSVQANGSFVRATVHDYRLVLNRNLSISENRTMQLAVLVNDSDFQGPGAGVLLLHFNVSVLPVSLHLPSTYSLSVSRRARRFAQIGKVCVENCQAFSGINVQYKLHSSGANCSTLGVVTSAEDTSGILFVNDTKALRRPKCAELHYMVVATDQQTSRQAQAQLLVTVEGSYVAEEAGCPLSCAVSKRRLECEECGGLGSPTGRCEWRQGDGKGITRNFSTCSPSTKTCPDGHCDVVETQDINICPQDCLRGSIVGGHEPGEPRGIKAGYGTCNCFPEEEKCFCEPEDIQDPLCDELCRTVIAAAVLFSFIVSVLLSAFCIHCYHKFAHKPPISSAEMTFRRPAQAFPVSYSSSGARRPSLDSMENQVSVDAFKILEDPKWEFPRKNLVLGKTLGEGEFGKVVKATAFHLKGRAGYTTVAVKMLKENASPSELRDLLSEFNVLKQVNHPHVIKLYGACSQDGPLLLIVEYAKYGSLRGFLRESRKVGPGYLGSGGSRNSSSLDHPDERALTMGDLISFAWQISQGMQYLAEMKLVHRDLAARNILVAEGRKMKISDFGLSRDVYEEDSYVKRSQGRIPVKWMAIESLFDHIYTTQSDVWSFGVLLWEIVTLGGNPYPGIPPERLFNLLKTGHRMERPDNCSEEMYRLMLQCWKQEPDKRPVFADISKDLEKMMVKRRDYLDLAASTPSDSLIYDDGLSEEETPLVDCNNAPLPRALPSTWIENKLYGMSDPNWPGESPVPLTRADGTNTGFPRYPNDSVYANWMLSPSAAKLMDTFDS", "description": "(§1) Figure S7 / Percent Control"}, "[2]": {"biological_target": "T1, ABL1(H396P)-nonphosphorylated (Homo sapiens, UniProt P00519, H396P)", "T1 construct": "nonphosphorylated", "description": "as §1"}, "[3]": {"biological_target": "CSNK1D (Homo sapiens, UniProt P48730)", "description": "as §1"}, "[4]": {"biological_target": "ACVRL1 (Homo sapiens, UniProt P37023)", "description": "as §1"}, "[5]": {"biological_target": "BUB1 (Homo sapiens, UniProt O43683)", "description": "as §1"}, "[6]": {"biological_target": "MELK (Homo sapiens, UniProt Q14680)", "sequence (Q14680 whole entry)": "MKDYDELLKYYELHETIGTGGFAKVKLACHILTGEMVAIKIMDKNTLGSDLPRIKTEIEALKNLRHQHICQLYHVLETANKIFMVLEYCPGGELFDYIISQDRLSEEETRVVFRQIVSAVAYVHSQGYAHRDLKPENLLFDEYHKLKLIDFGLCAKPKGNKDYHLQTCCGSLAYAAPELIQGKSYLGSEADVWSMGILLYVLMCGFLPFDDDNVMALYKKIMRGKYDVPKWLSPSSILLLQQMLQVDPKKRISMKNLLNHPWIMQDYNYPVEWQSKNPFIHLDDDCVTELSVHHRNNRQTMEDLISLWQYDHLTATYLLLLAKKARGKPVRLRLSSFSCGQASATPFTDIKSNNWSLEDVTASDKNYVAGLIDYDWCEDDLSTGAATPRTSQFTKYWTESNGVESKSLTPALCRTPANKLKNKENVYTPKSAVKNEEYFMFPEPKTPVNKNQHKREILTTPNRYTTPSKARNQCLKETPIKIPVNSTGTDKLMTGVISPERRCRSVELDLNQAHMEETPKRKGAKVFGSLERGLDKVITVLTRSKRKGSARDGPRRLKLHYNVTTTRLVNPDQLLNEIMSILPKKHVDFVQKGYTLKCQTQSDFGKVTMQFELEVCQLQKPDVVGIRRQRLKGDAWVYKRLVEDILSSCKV", "description": "as §1"}, "[7]": {"biological_target": "CAMKK2 (Homo sapiens, UniProt Q96RR4)", "description": "as §1"}, "[8]": {"biological_target": "T2, RIPK5 (Homo sapiens, UniProt Q6XUX3)", "T2 construct": "gene DSTYK", "description": "as §1"}, "[9]": {"biological_target": "MAP3K15 (Homo sapiens, UniProt Q6ZN16)", "description": "as §1"}, "[10]": {"biological_target": "T3, PIP5K2C (Homo sapiens, UniProt Q8TBX8)", "T3 construct": "gene PIP4K2C", "description": "as §1"}, "[11]": {"biological_target": "SIK2 (Homo sapiens, UniProt Q9H0K1)", "sequence (Q9H0K1 whole entry)": "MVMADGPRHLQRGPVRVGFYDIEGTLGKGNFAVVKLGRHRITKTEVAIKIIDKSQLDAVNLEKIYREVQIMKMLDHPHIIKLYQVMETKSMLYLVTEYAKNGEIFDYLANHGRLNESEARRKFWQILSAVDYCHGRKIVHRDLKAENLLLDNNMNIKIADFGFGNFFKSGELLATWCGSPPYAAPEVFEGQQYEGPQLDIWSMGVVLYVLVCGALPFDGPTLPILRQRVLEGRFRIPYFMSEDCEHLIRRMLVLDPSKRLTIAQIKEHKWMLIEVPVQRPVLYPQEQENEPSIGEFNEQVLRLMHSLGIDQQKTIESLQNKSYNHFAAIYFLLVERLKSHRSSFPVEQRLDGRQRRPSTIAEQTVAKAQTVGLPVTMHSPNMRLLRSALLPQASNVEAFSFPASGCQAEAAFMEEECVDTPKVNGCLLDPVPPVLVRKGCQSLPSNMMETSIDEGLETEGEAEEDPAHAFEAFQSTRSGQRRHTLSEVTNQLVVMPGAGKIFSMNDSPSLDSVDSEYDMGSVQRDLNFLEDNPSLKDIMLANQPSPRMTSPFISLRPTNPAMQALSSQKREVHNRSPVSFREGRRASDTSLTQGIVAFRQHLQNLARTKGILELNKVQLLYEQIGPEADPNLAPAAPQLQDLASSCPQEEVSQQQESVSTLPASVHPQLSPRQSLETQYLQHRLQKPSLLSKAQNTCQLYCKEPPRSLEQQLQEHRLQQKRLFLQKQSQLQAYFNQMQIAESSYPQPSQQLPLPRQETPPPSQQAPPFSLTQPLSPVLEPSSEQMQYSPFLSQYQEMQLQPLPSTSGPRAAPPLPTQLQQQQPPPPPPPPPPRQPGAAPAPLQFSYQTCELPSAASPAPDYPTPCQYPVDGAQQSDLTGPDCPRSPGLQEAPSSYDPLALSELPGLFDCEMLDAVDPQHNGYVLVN", "description": "as §1"}, "[12]": {"biological_target": "MYLK2 (Homo sapiens, UniProt Q9H1R3)", "description": "as §1"}, "[13]": {"biological_target": "T4, TRKA (Homo sapiens, UniProt P04629)", "T4 construct": "gene NTRK1", "description": "as §1"}, "[14]": {"biological_target": "T5, ERK5 (Homo sapiens, UniProt Q13164)", "T5 construct": "gene MAPK7", "description": "as §1"}, "[15]": {"biological_target": "KIT(L576P) (Homo sapiens, UniProt P10721, L576P)", "sequence (P10721 whole entry L576P)": "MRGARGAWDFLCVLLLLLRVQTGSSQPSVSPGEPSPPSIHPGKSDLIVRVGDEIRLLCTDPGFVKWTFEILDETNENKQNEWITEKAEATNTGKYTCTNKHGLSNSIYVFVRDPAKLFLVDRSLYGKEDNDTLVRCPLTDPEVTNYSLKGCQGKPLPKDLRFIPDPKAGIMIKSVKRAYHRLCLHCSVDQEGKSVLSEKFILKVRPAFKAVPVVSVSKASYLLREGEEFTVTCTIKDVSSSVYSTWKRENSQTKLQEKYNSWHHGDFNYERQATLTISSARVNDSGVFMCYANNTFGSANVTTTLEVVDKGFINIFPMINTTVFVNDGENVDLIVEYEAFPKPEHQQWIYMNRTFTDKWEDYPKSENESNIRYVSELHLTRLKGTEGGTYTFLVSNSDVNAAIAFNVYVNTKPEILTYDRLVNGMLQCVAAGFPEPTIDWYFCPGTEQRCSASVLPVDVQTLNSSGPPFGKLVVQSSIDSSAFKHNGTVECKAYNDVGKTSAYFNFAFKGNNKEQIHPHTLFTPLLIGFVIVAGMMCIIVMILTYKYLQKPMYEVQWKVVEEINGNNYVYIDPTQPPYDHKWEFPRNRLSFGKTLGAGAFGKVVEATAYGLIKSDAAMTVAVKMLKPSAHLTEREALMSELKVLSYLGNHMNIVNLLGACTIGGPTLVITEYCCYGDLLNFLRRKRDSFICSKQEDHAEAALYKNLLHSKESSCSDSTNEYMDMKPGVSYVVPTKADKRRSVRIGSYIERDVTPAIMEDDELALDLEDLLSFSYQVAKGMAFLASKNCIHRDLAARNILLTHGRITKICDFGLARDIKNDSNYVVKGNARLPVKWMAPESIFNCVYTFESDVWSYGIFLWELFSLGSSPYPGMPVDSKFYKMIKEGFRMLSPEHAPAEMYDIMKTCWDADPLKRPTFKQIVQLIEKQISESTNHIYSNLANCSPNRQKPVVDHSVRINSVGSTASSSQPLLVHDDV", "description": "as §1"}, "[16]": {"biological_target": "NEK11 (Homo sapiens, UniProt Q8NG66)", "description": "as §1"}, "[17]": {"biological_target": "PIP5K1C (Homo sapiens, UniProt O60331)", "description": "as §1"}, "[18]": {"biological_target": "EPHA3 (Homo sapiens, UniProt P29320)", "description": "as §1"}, "[19]": {"biological_target": "RIPK4 (Homo sapiens, UniProt P57078)", "description": "as §1"}, "[20]": {"biological_target": "DAPK1 (Homo sapiens, UniProt P53355)", "description": "as §1"}, "[21]": {"biological_target": "ACVR2B (Homo sapiens, UniProt Q13705)", "description": "as §1"}, "[22]": {"biological_target": "T6, PIP5K2B (Homo sapiens, UniProt P78356)", "T6 construct": "gene PIP4K2B", "description": "as §1"}, "[23]": {"biological_target": "T7, PFTK1 (Homo sapiens, UniProt O94921)", "T7 construct": "gene CDK14", "T7 sequence (O94921 whole entry)": "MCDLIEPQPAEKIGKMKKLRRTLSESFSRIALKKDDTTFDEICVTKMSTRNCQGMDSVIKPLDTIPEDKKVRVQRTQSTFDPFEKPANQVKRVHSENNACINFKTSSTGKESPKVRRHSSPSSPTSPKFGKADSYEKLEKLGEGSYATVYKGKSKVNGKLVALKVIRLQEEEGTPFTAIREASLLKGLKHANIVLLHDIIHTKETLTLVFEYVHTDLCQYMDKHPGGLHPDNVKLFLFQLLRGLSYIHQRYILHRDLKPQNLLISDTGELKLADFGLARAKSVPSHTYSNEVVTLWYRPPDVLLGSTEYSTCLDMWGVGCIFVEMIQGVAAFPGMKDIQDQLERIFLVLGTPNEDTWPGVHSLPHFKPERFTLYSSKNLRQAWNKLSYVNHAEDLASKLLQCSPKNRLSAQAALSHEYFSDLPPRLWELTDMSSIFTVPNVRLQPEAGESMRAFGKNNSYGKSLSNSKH", "description": "as §1"}, "[24]": {"biological_target": "T8, TRKB (Homo sapiens, UniProt Q16620)", "T8 construct": "gene NTRK2", "T8 sequence (Q16620 whole entry)": "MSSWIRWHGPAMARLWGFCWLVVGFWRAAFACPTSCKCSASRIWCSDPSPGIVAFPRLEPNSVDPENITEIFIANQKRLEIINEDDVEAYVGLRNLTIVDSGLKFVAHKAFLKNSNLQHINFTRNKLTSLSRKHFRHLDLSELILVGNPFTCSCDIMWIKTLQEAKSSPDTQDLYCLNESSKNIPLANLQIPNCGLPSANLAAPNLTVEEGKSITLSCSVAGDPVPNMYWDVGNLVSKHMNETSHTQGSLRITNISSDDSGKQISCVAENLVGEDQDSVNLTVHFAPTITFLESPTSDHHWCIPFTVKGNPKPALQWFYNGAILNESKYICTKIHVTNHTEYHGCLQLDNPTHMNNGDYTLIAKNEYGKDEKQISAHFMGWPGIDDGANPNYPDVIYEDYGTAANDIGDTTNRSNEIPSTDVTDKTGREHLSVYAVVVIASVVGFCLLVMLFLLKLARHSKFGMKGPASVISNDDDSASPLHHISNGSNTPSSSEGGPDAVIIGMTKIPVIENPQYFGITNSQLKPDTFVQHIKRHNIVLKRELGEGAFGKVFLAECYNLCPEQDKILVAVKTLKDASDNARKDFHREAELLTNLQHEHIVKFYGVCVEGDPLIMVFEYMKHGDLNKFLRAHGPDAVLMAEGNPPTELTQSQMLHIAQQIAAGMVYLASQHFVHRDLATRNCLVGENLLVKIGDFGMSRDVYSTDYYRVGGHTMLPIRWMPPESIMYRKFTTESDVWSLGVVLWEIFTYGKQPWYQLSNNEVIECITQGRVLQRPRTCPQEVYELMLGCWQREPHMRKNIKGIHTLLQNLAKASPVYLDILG", "description": "as §1"}, "[25]": {"biological_target": "WNK1 (Homo sapiens, UniProt Q9H4A3)", "description": "as §1"}},
  "data": [
    {"smiles": "Cn1c(=O)[nH]c2ccc(-c3cccc(C(=O)NC4CCn5ccnc5C4)c3)cc21", "note": "(stereo not shown) [Z36-MP5]", "values": [
      {"measurement": "remaining binding at 1 µM", "setting": "[1]", "result": 67, "unit": "%"},
      {"measurement": "remaining binding at 1 µM", "setting": "[2]", "result": 69, "unit": "%"},
      {"measurement": "remaining binding at 1 µM", "setting": "[3]", "result": 98, "unit": "%"},
      {"measurement": "remaining binding at 1 µM", "setting": "[4]", "result": 92, "unit": "%"},
      {"measurement": "remaining binding at 1 µM", "setting": "[5]", "result": 73, "unit": "%"},
      {"measurement": "remaining binding at 1 µM", "setting": "[6]", "result": 85, "unit": "%"},
      {"measurement": "remaining binding at 1 µM", "setting": "[7]", "result": 51, "unit": "%"},
      {"measurement": "remaining binding at 1 µM", "setting": "[8]", "result": 54, "unit": "%"},
      {"measurement": "remaining binding at 1 µM", "setting": "[9]", "result": 52, "unit": "%"},
      {"measurement": "remaining binding at 1 µM", "setting": "[10]", "result": 80, "unit": "%"},
      {"measurement": "remaining binding at 1 µM", "setting": "[11]", "result": 81, "unit": "%"},
      {"measurement": "remaining binding at 1 µM", "setting": "[12]", "result": 96, "unit": "%"},
      {"measurement": "remaining binding at 1 µM", "setting": "[13]", "result": 67, "unit": "%"},
      {"measurement": "remaining binding at 1 µM", "setting": "[14]", "result": 86, "unit": "%"},
      {"measurement": "remaining binding at 1 µM", "setting": "[15]", "result": 74, "unit": "%"},
      {"measurement": "remaining binding at 1 µM", "setting": "[16]", "result": 33, "unit": "%"},
      {"measurement": "remaining binding at 1 µM", "setting": "[17]", "result": 66, "unit": "%"},
      {"measurement": "remaining binding at 1 µM", "setting": "[18]", "result": 93, "unit": "%"},
      {"measurement": "remaining binding at 1 µM", "setting": "[19]", "result": 99, "unit": "%"},
      {"measurement": "remaining binding at 1 µM", "setting": "[20]", "result": 99, "unit": "%"},
      {"measurement": "remaining binding at 1 µM", "setting": "[21]", "result": 91, "unit": "%"},
      {"measurement": "remaining binding at 1 µM", "setting": "[22]", "result": 54, "unit": "%"},
      {"measurement": "remaining binding at 1 µM", "setting": "[23]", "result": 98, "unit": "%"},
      {"measurement": "remaining binding at 1 µM", "setting": "[24]", "result": 52, "unit": "%"},
      {"measurement": "remaining binding at 1 µM", "setting": "[25]", "result": 59, "unit": "%"}
    ]}
  ]
}
